Data from patent US20230097866A1, “BACTERIAL TOPOISOMERASE INHIBITORS DERIVED FROM ISOMANNIDE” (Ohio State Innovation Foundation, priority 2020, published 2023).
Read-outs that look alike come from different tables or passages of the source.

Legend:
[1] = target: T1, Cav1.2 (L-type) Human Calcium Ion Channel (Homo sapiens, UniProt Q13936); assay: Cav1.2 (L-type) QPatch CiPA assay; format: cell-based; settings: mean, duplicate
T1 construct: expressed in transfected cells
Text: (§1) Early drug discovery programs commonly assess hERG inhibition as the only indicator of potential cardiovascular safety concerns. Researchers have recently recommended a more rigorous evaluation of multiple cardiac ion channels to provide a more comprehensive cardiovascular risk assessment (Fermini, B., et al., A New Perspective in the Field of Cardiac Safety Testing through the Comprehensive In Vitro Proarrhythmia Assay Paradigm. J. Biomolec. Screening 2016, 21, 1-11). Given the promising initial results for 6, further evaluation was undertaken (in duplicate) in a Comprehensive in vitro Proarrhythmia Assay (CiPA) eight assay panel run on the QPatch HT (Sophion, Denmark) automated patch clamp system at three concentrations (3, 30, and 100 μM). All data were filtered for seal quality, seal drop, and current amplitude. A stock solution of the test compound at 30 mM concentration was prepared in DMSO.
The parameters measured were the maximum inward current evoked on stepping to 10 mV from the test pulse. The peak current amplitude was calculated before and after compound addition and the amount of block was assessed by dividing the Test compound current amplitude by the Control current amplitude. Control is the mean hCav1.2 current amplitude collected 15 seconds at the end of the control; Test Compound is the mean hCav1.2 current amplitude collected in the presence of test compound at each concentration. The positive control was nifedipine.

S. aureus DNA gyrase = S. aureus DNA gyrase (Staphylococcus aureus, UniProt P20831); assay: Inhibition of DNA gyrase, biochemical assay (Inspiralis); settings: S. aureus DNA gyrase; Inspiralis, Ltd.; read-out: Gyrase IC50
Nav site 2 = assay: Off-target safety panel, Nav site 2; format: binding; settings: duplicate
Experimental: (§2) Potential off-target pharmacology for compound 6 was also evaluated by screening in duplicate against a panel (Bowes, J., et al., Reducing Safety-Related Drug Attrition: The Use of in vitro Pharmacological Profiling. Nat. Rev. Drug Disc. 2012, 11, 909-922) of 44 receptors, enzymes, etc. Of the 44 potential targets, only five were inhibited by >50% at a concentration of 100 μM (Table 7).

[2] = tested on: Streptococcus pyogenes LSI-1235; assay: MIC panel (Laboratory Specialists, Inc.), S. pyogenes; format: cell-based; settings: LSI1235, Cmpd. 6, CLSI broth microdilution
hKv4.3/KChIP2 = target: T2, hKv4.3/KChIP2 (Homo sapiens, UniProt Q9UK17); assay: Kv4.3/KChIP2 QPatch CiPA assay; format: cell-based; settings: mean, duplicate
T2 construct: expressed in transfected cells
T2 sequence (Q9UK17 1-655): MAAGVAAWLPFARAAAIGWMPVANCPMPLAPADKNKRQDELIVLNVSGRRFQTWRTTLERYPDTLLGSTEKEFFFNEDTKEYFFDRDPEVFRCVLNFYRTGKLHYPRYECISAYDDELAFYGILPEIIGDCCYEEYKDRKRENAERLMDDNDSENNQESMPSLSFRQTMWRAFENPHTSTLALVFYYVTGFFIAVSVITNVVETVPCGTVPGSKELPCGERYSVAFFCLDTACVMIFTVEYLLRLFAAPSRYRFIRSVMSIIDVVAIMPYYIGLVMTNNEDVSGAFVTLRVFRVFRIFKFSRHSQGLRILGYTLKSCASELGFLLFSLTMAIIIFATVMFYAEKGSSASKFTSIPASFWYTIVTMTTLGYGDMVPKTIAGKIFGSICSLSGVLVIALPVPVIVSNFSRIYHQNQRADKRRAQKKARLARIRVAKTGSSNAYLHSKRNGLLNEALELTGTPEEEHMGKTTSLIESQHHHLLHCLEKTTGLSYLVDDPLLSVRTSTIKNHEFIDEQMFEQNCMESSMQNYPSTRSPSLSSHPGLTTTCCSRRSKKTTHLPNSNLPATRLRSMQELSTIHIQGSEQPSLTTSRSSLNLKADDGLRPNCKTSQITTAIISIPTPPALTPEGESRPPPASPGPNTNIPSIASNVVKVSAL
T2 sequence (Q9NS61 1-270 partner): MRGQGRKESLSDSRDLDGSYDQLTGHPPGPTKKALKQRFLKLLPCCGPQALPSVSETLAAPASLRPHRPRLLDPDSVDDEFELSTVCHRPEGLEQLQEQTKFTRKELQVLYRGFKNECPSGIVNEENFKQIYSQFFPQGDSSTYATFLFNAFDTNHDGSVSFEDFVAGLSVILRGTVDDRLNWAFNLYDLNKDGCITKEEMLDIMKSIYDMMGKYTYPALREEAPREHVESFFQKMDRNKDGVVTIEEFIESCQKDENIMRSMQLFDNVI
Text: as §1
The parameters measured were the maximum outward current evoked on stepping to 40 mV from the test pulse. The peak current amplitude was calculated before and after compound addition and the amount of block was assessed by dividing the Test compound current amplitude by the Control current amplitude. Control is the mean hKv4.3/KChIP2 current amplitude collected 15 seconds at the end of the control; Test Compound is the mean hKv4.3/KChIP2 current amplitude peak and end collected in the presence of test compound at each concentration. The positive control was flecainide.

[3] = tested on: Pseudomonas aeruginosa LSI-2946; assay: MIC panel (Laboratory Specialists, Inc.), P. aeruginosa; format: cell-based; settings: LSI2946, Cmpd. 6, CLSI broth microdilution
Caco-2 cells = format: in vitro ADME; settings: human, Caco-2, 10 μM, pH 7.4
Experimental: Caco-2 cells were plated on Transwell inserts and permeability assays were performed at day 21-25 post-plating. A single concentration of test compound (10 μM final) was prepared in HSS-HEPES buffer (pH 7.4) with a final DMSO concentration of 0.1%. To determine apical to basolateral (A to B) transport, test compounds were applied to the apical compartment in the presence and absence of the P-gp inhibitor verapamil (100 μM final). Atenolol and caffeine were assayed as control compounds. Samples were collected at various time points and analyzed using LC-MS/MS methods to determine the apparent permeability coefficient (Papp), efflux ratio, and recovery of the test compound.
Transport in the opposite direction (B to A) was also determined.

[4] = target: Norepinephrine transporter (Homo sapiens, UniProt P23975); assay: Off-target safety panel, norepinephrine transporter; format: binding; settings: duplicate, read-out: % Inhibition at 100 μM conc., Norepinephrine transporter
Norepinephrine transporter, sequence (P23975 whole entry, species assumed): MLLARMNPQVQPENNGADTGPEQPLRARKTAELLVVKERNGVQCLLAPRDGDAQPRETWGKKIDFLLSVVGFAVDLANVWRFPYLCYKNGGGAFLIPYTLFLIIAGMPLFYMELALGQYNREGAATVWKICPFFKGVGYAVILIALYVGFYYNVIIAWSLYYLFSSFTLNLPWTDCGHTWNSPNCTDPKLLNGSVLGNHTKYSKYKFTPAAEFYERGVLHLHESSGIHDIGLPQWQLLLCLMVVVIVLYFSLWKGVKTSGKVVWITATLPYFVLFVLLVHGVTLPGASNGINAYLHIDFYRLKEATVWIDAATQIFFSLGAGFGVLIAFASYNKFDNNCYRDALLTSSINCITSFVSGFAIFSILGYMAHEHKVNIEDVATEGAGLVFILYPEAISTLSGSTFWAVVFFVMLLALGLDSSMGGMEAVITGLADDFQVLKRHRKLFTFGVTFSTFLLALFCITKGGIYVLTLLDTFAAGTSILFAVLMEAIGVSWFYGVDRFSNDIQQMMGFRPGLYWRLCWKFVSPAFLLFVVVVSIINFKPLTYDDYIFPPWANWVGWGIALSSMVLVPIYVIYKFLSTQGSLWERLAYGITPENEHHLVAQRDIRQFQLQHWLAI
Experimental: as §2

S. aureus ATCC 29213 = assay: MIC, CLSI broth microdilution, S. aureus ATCC 29213; format: cell-based; settings: Staphylococcus aureus, ATCC29213
[5] = read-out: % Inhibition Kv4.3 (end current)
[6] = read-out: % Inhibition Kv4.3 (peak current)

T1 sequence (Q13936 whole entry): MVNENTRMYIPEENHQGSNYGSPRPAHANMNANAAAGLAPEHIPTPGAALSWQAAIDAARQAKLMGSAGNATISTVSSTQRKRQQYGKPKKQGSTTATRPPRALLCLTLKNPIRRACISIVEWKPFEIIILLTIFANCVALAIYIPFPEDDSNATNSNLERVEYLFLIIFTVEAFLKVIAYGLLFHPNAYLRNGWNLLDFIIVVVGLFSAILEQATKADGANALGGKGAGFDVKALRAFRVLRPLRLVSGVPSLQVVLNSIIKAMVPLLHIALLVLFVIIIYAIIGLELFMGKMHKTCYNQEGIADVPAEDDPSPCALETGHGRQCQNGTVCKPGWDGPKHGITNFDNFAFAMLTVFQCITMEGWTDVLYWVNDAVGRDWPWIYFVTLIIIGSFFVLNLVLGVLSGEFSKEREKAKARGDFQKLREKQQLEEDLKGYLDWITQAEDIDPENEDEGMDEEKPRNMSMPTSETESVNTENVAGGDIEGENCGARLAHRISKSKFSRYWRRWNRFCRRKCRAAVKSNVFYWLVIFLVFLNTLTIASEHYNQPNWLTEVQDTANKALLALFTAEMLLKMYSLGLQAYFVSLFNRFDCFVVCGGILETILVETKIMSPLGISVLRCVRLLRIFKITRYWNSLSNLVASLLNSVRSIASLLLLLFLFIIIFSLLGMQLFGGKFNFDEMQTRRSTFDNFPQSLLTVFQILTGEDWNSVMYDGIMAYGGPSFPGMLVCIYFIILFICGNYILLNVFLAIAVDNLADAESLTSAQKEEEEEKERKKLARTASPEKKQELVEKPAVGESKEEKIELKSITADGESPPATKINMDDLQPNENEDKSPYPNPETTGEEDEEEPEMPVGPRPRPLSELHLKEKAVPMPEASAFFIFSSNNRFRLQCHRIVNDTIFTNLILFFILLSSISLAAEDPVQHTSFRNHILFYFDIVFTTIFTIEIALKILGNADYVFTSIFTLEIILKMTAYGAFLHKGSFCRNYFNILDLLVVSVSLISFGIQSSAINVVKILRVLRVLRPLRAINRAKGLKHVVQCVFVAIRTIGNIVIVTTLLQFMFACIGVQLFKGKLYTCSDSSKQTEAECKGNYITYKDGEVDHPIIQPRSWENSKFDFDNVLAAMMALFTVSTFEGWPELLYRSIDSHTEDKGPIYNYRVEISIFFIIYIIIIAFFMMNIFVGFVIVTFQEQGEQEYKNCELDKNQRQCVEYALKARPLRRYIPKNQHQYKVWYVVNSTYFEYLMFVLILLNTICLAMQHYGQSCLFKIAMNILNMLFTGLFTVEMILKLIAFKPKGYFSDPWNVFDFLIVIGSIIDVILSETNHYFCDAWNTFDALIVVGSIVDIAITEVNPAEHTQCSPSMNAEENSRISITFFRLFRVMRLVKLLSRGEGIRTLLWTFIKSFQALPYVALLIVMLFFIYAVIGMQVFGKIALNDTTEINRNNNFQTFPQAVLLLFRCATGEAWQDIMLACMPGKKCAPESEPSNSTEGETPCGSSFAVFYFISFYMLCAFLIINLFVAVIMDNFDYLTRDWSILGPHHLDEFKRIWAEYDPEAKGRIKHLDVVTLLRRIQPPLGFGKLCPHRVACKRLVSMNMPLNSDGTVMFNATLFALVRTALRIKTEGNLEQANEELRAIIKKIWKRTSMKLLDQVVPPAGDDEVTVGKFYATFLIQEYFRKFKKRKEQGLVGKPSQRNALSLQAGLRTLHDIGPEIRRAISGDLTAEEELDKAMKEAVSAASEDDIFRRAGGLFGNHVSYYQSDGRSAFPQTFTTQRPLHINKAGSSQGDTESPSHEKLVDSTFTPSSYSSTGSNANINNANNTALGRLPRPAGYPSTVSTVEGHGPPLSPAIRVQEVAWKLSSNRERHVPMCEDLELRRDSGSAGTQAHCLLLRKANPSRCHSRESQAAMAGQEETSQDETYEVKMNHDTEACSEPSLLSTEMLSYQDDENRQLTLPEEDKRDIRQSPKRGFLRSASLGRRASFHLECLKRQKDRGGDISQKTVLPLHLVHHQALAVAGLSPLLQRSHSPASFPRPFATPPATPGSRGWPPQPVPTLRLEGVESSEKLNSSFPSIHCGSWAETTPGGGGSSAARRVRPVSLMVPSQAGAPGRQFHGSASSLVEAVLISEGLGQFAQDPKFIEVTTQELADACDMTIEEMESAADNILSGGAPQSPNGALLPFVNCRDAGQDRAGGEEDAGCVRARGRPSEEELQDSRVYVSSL
T1 sequence (Q08289 whole entry partner): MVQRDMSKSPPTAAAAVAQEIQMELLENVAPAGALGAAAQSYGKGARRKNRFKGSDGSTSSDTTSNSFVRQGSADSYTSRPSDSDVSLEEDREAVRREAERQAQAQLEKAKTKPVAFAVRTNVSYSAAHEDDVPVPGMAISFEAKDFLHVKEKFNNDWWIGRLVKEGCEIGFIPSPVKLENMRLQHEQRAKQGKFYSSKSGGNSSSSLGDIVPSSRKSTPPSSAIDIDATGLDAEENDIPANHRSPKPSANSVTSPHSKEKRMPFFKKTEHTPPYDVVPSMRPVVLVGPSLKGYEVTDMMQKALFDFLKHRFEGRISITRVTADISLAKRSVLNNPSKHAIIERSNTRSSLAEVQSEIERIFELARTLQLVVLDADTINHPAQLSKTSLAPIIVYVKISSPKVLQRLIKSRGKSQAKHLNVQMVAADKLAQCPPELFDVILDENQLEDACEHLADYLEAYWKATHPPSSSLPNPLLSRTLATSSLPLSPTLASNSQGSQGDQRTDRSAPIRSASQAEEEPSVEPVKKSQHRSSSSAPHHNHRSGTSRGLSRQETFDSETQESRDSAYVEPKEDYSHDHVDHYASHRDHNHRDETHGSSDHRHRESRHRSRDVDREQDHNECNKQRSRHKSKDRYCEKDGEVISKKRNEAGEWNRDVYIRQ
T1 sequence (P54289 25-946 partner limits assumed): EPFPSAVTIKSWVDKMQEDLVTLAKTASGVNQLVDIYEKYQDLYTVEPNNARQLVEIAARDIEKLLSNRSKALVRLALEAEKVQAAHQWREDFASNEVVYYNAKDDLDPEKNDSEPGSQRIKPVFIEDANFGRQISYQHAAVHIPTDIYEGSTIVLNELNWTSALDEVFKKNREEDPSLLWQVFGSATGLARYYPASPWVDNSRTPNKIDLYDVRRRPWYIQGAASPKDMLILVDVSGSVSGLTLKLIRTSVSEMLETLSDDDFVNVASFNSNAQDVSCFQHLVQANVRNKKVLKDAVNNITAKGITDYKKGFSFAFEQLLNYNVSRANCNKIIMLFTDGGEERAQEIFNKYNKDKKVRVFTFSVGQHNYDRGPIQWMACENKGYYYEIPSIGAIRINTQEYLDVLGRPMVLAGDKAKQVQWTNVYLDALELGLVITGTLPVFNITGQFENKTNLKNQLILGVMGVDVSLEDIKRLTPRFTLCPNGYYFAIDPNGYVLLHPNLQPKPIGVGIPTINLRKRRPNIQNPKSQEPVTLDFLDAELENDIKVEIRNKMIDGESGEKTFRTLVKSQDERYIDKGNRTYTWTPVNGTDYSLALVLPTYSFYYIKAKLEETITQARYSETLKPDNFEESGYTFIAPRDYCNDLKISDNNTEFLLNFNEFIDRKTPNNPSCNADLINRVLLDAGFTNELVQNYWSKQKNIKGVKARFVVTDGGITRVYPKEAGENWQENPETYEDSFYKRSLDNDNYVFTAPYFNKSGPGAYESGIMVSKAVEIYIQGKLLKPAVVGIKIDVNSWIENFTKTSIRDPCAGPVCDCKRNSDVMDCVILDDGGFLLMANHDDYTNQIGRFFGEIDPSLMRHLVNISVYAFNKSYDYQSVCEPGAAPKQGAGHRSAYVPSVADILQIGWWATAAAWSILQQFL
T1 sequence (P54289 947-1103 partner limits assumed): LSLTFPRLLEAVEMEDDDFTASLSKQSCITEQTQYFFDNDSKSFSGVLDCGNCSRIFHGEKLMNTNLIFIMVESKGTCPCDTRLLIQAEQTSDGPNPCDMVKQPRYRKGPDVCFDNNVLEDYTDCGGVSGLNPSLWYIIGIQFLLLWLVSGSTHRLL

Compound: COc1ccc2ncc(F)c(CC[C@@]3(O)CO[C@@H]4[C@@H](NCc5cc6c(cn5)OCCO6)CO[C@@H]43)c2n1 [Compound 6, (3R, 3aS,6S,6aR)-6-(((2,3-dihydro-[1,4]dioxino[2,36-c]pyridin-7-yl)methyl)amnino)-3-(2-(3-fluoro-6-methoxy-1,5-naphthyridin-4-yl)ethyl)hexahydrofuro[3,2-b]furan-3-ol]
- % Inhibition Cav1.2 (peak current) ([1]; 3 μM): 4.7%
- % Inhibition Cav1.2 (peak current) ([1]; 30 μM): 23.3%
- % Inhibition Cav1.2 (peak current) ([1]; 100 μM): 24.9%
- IC50 (S. aureus DNA gyrase): 530 nM
- % Inhibition at 100 μM conc., Nav site 2 (Nav site 2): 78%
- MIC [2]: ≤ 0.12 µg/mL
- inhibition at 3 µM (hKv4.3/KChIP2; [5]): -4.4%
- inhibition at 3 µM (hKv4.3/KChIP2; [6]): 11%
- inhibition at 30 µM (hKv4.3/KChIP2; [5]): -19.6%
- inhibition at 30 µM (hKv4.3/KChIP2; [6]): 25.1%
- inhibition at 100 µM (hKv4.3/KChIP2; [5]): 7.1%
- inhibition at 100 µM (hKv4.3/KChIP2; [6]): 43.6%
- MIC [3]: ≤ 0.12 µg/mL
- Caco-2 permeability A→B (Caco-2 cells): 10.8 ×10⁻⁶ cm/s
- Caco-2 permeability B→A (Caco-2 cells): 85.3 ×10⁻⁶ cm/s
- inhibition at 100 µM [4]: 68%
- MIC (S. aureus ATCC 29213; CLSI broth microdilution, triplicate, read-out: MIC ATCC 29213): 1 to 4 µg/mL
- MIC (S. aureus ATCC 29213; same MIC expressed in μM, read-out: MIC for S. aureus ATCC 29213): 2 to 8 µM
